Laboratory results published in patent publication US20250205300A1, “PLANT-BASED COMPOSITIONS AND METHODS FOR HORMONE SIGNALING, BLOOD GLUCOSE CONTROL, APPETITE CONTROL, AND WEIGHT MANAGEMENT” (Alpine Biotech, LLC, priority 2023, published 2025).

Columns and labels:
[1] = system: preclinical diabetes model; assay: Plasma GLP-1 levels in preclinical diabetes model (FIG. 2); type: in vivo
[2] = system: Human NCI-H716 cells; assay: Secretion of GLP-1 in Human NCI-H716 cells (FIG. 1); type: cell-based
From the text: FIG. 1 is a graph illustrating the effects of compositions in Human NCI-H716 cells according to an implementation.

SMILES | plasma GLP-1 levels [1] | secretion of GLP-1 [2]
COc1ccc2cc3[n+](cc2c1OC)CCc1cc2c(cc1-3)OCO2 [Berberine] | modulate plasmas GLP-1 levels | modulate the secretion of GLP-1 to various degrees
O=C(O[C@@H]1Cc2c(O)cc(O)cc2O[C@@H]1c1cc(O)c(O)c(O)c1)c1cc(O)c(O)c(O)c1 [epigallocatechin gallate] | – | modulate the secretion of GLP-1 to various degrees
CC/C=C\C/C=C\C/C=C\CCCCCCCC(=O)O [α-linolenic acid] | modulate plasmas GLP-1 levels | modulate the secretion of GLP-1 to various degrees
